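Cells were grown in 96-well plates and exposed to each compound for 48 hours at five concentrations; endpoints were interpolated linearly between bracketing concentrations, or set to the highest concentration if not reached. GI50: concentration for 50% inhibition of growth.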 Active and inactive are the calls of the source. Cut-off read from the data, not from the text of the source: active = GI50 up to about 1.1 µM and inactive = higher.
Legend:
Assay in all cases: inhibition of tumour cell growth, NCI panel, 48 h
[1] = system: HT-29
[2] = system: NCI-H522
[3] = system: T47D
[4] = system: MCF7
[5] = system: NCI-H460
[6] = system: LOX IMVI
[7] = system: SF-295
[8] = system: TK-10
[9] = system: SNB-19
[10] = system: MDA-MB-231
[11] = system: OVCAR-8
[12] = system: HCT-116
[13] = system: KM12
[14] = system: NCI-H23
[15] = system: DU-145
[16] = system: SK-OV-3
[17] = system: SN12C
[18] = system: RXF 393
[19] = system: K562
[20] = system: RPMI-8226
[21] = system: HL-60
[22] = system: MDA-MB-435
[23] = system: U-251
[24] = system: COLO 205
[25] = system: OVCAR-3
[26] = system: NCI-H226
[27] = system: Hs-578T
[28] = system: MDA-N
[29] = system: A549
[30] = system: SF-268
[31] = system: OVCAR-5
[32] = system: Malme-3M
[33] = system: HCT-15
[34] = system: HOP-92
[35] = system: CAKI-1
[36] = system: BT-549
[37] = system: PC-3
[38] = system: MOLT-4
[39] = system: SK-MEL-28
[40] = system: UACC-257
[41] = system: 786-0
[42] = system: SW-620
[43] = system: ACHN
[44] = system: SK-MEL-5
[45] = system: SF-539
[46] = system: HOP-62
[47] = system: M14
[48] = system: UACC-62
[49] = system: CCRF-CEM
[50] = system: SNB-75
[51] = system: HCC 2998
[52] = system: EKVX
[53] = system: UO-31
[54] = system: SK-MEL-2
[55] = system: IGROV-1

CN(C)c1ccc(C2SCC(=O)N2NS(=O)(=O)c2cccc(C(=O)O)c2)cc1 (stereo not given)
GI50 [1]: > 100 µM (inactive) | GI50 [2]: 28.2 µM (inactive) | GI50 [3]: > 100 µM (inactive) | GI50 [4]: 64.9 µM (inactive) | GI50 [5]: 76.2 µM (inactive) | GI50 [6]: > 100 µM (inactive) | GI50 [7]: 94 µM (inactive) | GI50 [8]: > 100 µM (inactive) | GI50 [9]: > 100 µM (inactive) | GI50 [10]: > 100 µM (inactive) | GI50 [11]: 17.7 µM (inactive) | GI50 [12]: > 100 µM (inactive) | GI50 [13]: > 100 µM (inactive) | GI50 [14]: > 100 µM (inactive) | GI50 [15]: > 100 µM (inactive) | GI50 [16]: > 100 µM (inactive) | GI50 [17]: > 100 µM (inactive) | GI50 [18]: > 100 µM (inactive) | GI50 [19]: 35.6 µM (inactive) | GI50 [20]: 45.9 µM (inactive) | GI50 [21]: 16.3 µM (inactive) | GI50 [22]: > 100 µM (inactive) | GI50 [23]: > 100 µM (inactive) | GI50 [24]: > 100 µM (inactive) | GI50 [25]: > 100 µM (inactive) | GI50 [26]: 52 µM (inactive) | GI50 [27]: > 100 µM (inactive) | GI50 [28]: > 100 µM (inactive) | GI50 [29]: 99.3 µM (inactive) | GI50 [30]: > 100 µM (inactive) | GI50 [31]: > 100 µM (inactive) | GI50 [32]: 99.8 µM (inactive) | GI50 [33]: 76.9 µM | GI50 [34]: > 100 µM (inactive) | GI50 [35]: > 100 µM (inactive) | GI50 [36]: > 100 µM (inactive) | GI50 [37]: > 100 µM (inactive) | GI50 [38]: 42.8 µM (inactive) | GI50 [39]: 97.7 µM (inactive) | GI50 [40]: > 100 µM (inactive) | GI50 [41]: 17.2 µM (inactive) | GI50 [42]: > 100 µM (inactive) | GI50 [43]: > 100 µM (inactive) | GI50 [44]: > 100 µM (inactive) | GI50 [45]: 46.3 µM (inactive) | GI50 [46]: > 100 µM (inactive) | GI50 [47]: > 100 µM (inactive) | GI50 [48]: > 100 µM (inactive) | GI50 [49]: 0.731 µM (active) | GI50 [50]: > 100 µM (inactive) | GI50 [51]: > 100 µM (inactive) | GI50 [52]: > 100 µM (inactive) | GI50 [53]: 72.8 µM (inactive) | GI50 [54]: > 100 µM (inactive) | GI50 [55]: > 100 µM (inactive)
